This is an account of results in ChEMBL document CHEMBL1141947, “Inhibitors of the serotonin transporter protein (SERT): the design and synthesis of biotinylated derivatives of 3-(1,2,3,6-tetrahydro-pyridin-4-yl)-1H-indoles. High-affinity serotonergic ligands for conjugation with quantum dots” (Bioorg Med Chem Lett, 2005).

Molecules are shown by their SMILES.

The target in assay [1] is T1, Sodium-dependent serotonin transporter (Homo sapiens, UniProt P31645). The assay can be described thus: Inhibitory activity of compound bound to streptavidin-conjugated quantum dots against human SERT transfected in HEK293 cells. The assay is classed as cell-based.
T1 sequence (P31645 whole entry): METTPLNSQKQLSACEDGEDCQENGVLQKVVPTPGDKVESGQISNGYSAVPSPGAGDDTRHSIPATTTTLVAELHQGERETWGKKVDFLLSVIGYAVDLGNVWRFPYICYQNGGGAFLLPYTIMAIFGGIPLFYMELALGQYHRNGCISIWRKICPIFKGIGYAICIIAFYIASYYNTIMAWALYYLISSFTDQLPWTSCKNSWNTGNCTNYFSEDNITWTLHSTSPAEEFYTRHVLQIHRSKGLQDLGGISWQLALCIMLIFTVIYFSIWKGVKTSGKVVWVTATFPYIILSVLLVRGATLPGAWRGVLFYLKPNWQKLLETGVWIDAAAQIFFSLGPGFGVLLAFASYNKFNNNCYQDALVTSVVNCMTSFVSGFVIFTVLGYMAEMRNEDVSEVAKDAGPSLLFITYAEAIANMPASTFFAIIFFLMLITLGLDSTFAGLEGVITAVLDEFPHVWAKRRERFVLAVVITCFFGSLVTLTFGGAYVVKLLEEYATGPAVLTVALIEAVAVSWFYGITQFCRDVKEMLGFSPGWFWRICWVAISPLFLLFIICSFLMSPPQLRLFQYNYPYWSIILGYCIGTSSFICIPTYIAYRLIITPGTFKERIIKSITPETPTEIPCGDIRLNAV
In assay [2] the target is T1, Sodium-dependent serotonin transporter. The assay can be described thus: Inhibitory activity against human SERT transfected in HEK293 cells. The class given is cell-based.

For `O=C(CCCCC1SCC2NC(=O)NC21)NCCN1CC=C(c2c[nH]c3ccccc23)CC1` (centres undefined), the IC50 in assay [1] was 0.03 µM; in assay [2], 0.002 µM.
Take `NCCc1c[nH]c2ccc(OCCOCCOCCS)cc12`: the IC50 in assay [1] worked out at 99 µM; in assay [2], 115 µM.

As usually defined, the IC50 is the concentration that inhibits the measured activity by half. The low end stands for greater potency in that assay, the high end for weaker potency in that assay.
